The values below come from ChEMBL document CHEMBL3351233, “Design, stereoselective synthesis, configurational stability and biological activity of 7-chloro-9-(furan-3-yl)-2,3,3a,4-tetrahydro-1H-benzo[e]pyrrolo[2,1-c][1,2,4]thiadiazine 5,5-dioxide” (Bioorg Med Chem, 2014).

Data set [1] is filed under the species Rattus norvegicus. Description: Positive allosteric modulator activity at AMPA receptor in 7 days old Sprague-Dawley rat cerebellar granule neurons assessed as potentiation of kainite-evoked current at 10 uM by whole cell patch clamp technique.
For data set [2], the species on record is Rattus norvegicus. Description: Positive allosteric modulator activity at AMPA receptor in 7 days old Sprague-Dawley rat cerebellar granule neurons assessed as potentiation of 5-Will-evoked current at 10 uM by whole cell patch clamp technique. Background: The patch-clamp technique gives a direct electrical read-out from membranes.
Data set [3] in a line: Chemical stability of the compound in water/acetonitrile mobile phase by chromatography. As to conditions: buffer. Type of data set: physicochemical.

Take `O=S1(=O)N[C@H]2CCCN2c2c(-c3ccoc3)cc(Cl)cc21`: the Activity in the data set filed under Rattus norvegicus [1] was found to be 12%; in the data set filed under Rattus norvegicus [2] it was 122%.

As to `CC1Nc2ccc(Cl)cc2S(=O)(=O)N1` (stereo not drawn), the Activity in the data set filed under Rattus norvegicus [1] is 8%; in the data set filed under Rattus norvegicus [2] it was 10%.

As for `O=S1(=O)NC2CCCN2c2c(-c3ccoc3)cc(Cl)cc21` (racemic), the Activity in the data set listed under Rattus norvegicus [1] is 30%. In addition, the Stability entry in data set [3] is on record as “Stable”.

For `O=S1(=O)N[C@@H]2CCCN2c2c(-c3ccoc3)cc(Cl)cc21`, the Activity in the data set listed under Rattus norvegicus [1] amounted to 74%; in the data set listed under Rattus norvegicus [2], 245%.
